The subject of this test is Chlorella sp. ATCC 7516. The test is described as follows: Algal efficacy testing of dry paint film (modified ASTM 5589, 6-well plates). Type of test: cell-based. The note with it: 672 h, 4 weeks, pass level ≧75% inhibition. On the procedure: Slurries containing 33% antimicrobial active ingredient (flurochloridone) were post added to a white, acrylic/silicone based outdoor paint free of biocides to give a total active ingredient concentration of 10000 and 1000 ppm respectively. KATHON™ 893T (100% OIT) was post added to a white, acrylic/silicone based outdoor paint free of biocides to give a total active ingredient concentration of 10000 and 1000 ppm respectively. These paints were then diluted with an antimicrobial free acrylic/silicone based paint and mixed to prepare targeted concentrations of antimicrobial compounds for the testing. The total biocides concentrations tested were 125, 250, 500, 1000, 2000 and 5000 ppm. After biocides addition or dilution, the paints were mixed 90 seconds with the horse power shaker (AXEL 75M3372/Agitateur SO-10MI) until uniformity was achieved. […]
Each well that contains a tested coupon was inoculated with 1750 μl of algal suspensions (1×10^6 cfu/ml) making sure that the whole surface (paint film as well as the agar surrounding it) was evenly covered. […] The total area inhibited was evaluated at the end of each week according to percent area covered in 5% increments
At the end of the four week incubation period, the samples were scored for percent inhibition regarding color intensity compared to the blank sample. […]
The SI is calculated based on F. C. […]

Consider `O=C1C(Cl)C(CCl)CN1c1cccc(C(F)(F)F)c1` (centres unmarked) [Flurochloridone, 3-chloro-4-(chloromethyl)-1-[3-(trifluoromethyl)phenyl]-2-pyrrolidinone], for which the inhibition at 5000 ppm (total conc 5000 ppm in paint) was 90%.
Turning to `CCCCCCCCn1sccc1=O` [OIT, 2-n-octyl-4-isothiazolin-3-one], the inhibition at 2000 ppm (total conc 2000 ppm in paint) stood at 65%.

A word on the inhibition: it is the share of the control response that was lost under treatment.

For the origin of these results see patent publication US9686989B2, “Synergistic combination of a flurochloridone compound and zinc pyrithione for dry film protection” (Rohm and Haas Company, priority 2013, dated 2017).
